Laboratory results reported in patent publication US12415819B2, “Cu- and Ni-catalyzed decarboxylative borylation reactions” (The Scripps Research Institute, priority 2017, dated 2025).
Read-outs that look alike come from different tables or passages of the source. Residues, ends and D or L forms follow the SMILES beside them. *: point of attachment. Moc = COC(=O)*

Assays:
[1] = Caco-2 Permeability Assay; conditions: human
Protocol: Digoxin, fenoterol, and propranol were used as standards respectively. Transport Method:
The transport buffer used in the study was HBSS with 10 mM HEPES at pH 7.40±0.05. Compounds were tested at 2 μM bi-directionally in duplicates. Digoxin was tested at […] bi-directionally in a duplicate, while fenoterol and propranolol were tested at 2 μM in A(apical) to B (basolateral) direction in duplicates. The final DMSO concentration was adjusted to less than 1%. The plate was incubated for 2 hours in a CO2 incubator at 37±1° C., with 5% CO2 at saturated humidity without shaking. All samples, after mixing with acetonitrile containing internal standard, were centrifuged at 4000 rpm for 20 min. Subsequently,100 μL supernatant solution was diluted with 100 μL distilled water for LC/MS/MS analysis. Concentrations of test and control compounds in starting solution, donor solution, and receiver solution were quantified by LC/MS/MS methodologies, using peak area ratio of analyte/internal standard. After transport assay, lucifer yellow rejection assay was applied to determine the Caco-2 cell monolayer integrity.
Data analysis: The apparent permeability coefficient Papp (cm/s) was calculated using the equation:
The efflux ratio was calculated using the equation: Efflux ratio=Papp(BA)/Papp(AB)
Percent recovery was calculated using the equation: % Recovery=100×[(Vr·Cr)+(Vd·Cd)]/(Vd·C0) Where Vd is the volume in the donor chambers (0.075 mL on the apical side, 0.25 mL on the basolateral side); Cd and Cr are the final concentrations of transport compound in donor and receiver chambers, respectively.

[2] = Mouse Liver Microsomal Metabolic Stability Assay; conditions: for Remaining (*NCF = 60min): MLM 0.5, no co-factor; for Remaining (T = 60 min): MLM 0.5, with NADPH regenerating system
Protocol: 100 mM potassium phosphate buffer, pH 7.4. • 2. 10 mM MgCl2 • 3) Compound Dilution:
Intermediate solution was prepared by diluting 5 μL of compound or control stock solution (10 mM in DMSO) with DMSO (45 μL) and 1:1 Methanol/Water (450 μL) (concentration=100 μM, 45% MeOH). Working solution was prepared by diluting 50 μL of the intermediate solution with 450 μL of 100 mM potassium phosphate buffer, pH=7.4 (centration=10 μM, 4.5% MeOH). • 4) NADPH regenerating system (final Isocitric dehydrogenase concentration=1 unit/mL at incubation) comprised:
10 μL/well of compound working solution or control working solution was added to all plates (T0, T5, T10, T20, T30, T60, NCF60) except the matrix blank. 80 μL/well of microsome solution was added to every plate. The mixtures of microsome solution and compound were incubated at 37° C. for about 10 min. 10 μL/well of NADPH regenerating system (pre-warmed to 37° C.) was then added to every plate to start the reaction. […] For NCF60 (abbreviation of no co-factor) no NADPH regenerating system was added, but was replaced by 10 μL/well of potassium phosphate buffer (100 mM, pH 7.4); the resulting mixture was incubated at 37° C. for 1 h.
The reactions were then terminated with the stop solution (cold at 4° C.) containing 100 ng/mL Tolbutamide and 100 ng/mL Labetalol ([…]). The sampling plates were shaken for approximately 10 minutes, then were centrifuged at 4000 rpm for 20 min at 4° C. While centrifuging, 8 new 96 well plates were loaded with […] of HPLC grade water. 100 μL of supernatant was finally added to 300 μL of HPLC grade water and mixed for LC/MS/MS analysis.
The equation of first order kinetics was used to calculate T1/2 and CIint(mic): […]

[3] = biological target: human neutrophil elastase (Homo sapiens (Human), UniProt P08246); assay: Elastase inhibition assay, purified human neutrophil elastase; type: biochemical; conditions: for LipE / IC50: Purified NHE; for IC50: 30 minutes incubation at room temperature, 100 μM substrate
Protocol: Serially diluted compounds in DMSO were dispensed into a 384-well black opaque plate by Echo dispenser. 0.1 μg/mL human neutrophil elastase (EPC, Catalog# SE563, Owensville, Ms.) or human sputum diluted with assay buffer (100 mM HEPES, 500 mM NaCl, 0.02% Tween 20) was added into the 384-well plate, and was incubated with different compounds at different concentrations for 30 minutes at room temperature. The final concentration of DMSO in the reaction was 0.1%. […] Slope of fluorescence intensity vs. time representing the Vmax of enzyme activity was calculated with MARS software. % relative inhibition was calculated as: […]
(§1) IC50 was calculated based on the % relative inhibition curve using log(agonist) vs. response (three parameters) method with Prism software. All experiments were performed in triplicate for at least three independent times.

[4] = biological target: elastase in CF patient sputum (Homo sapiens (Human), UniProt P08246); assay: Elastase inhibition assay in CF patient sputum; type: biochemical; conditions: for IC50 / LipE: CF sputum
Protocol: (§2) Serially diluted compounds in DMSO were dispensed into a 384-well black opaque plate by Echo dispenser. 0.1 μg/mL human neutrophil elastase (EPC, Catalog# SE563, Owensville, Ms.) or human sputum diluted with assay buffer (100 mM HEPES, 500 mM NaCl, 0.02% Tween 20) was added into the 384-well plate, and was incubated with different compounds at different concentrations for 30 minutes at room temperature. The final concentration of DMSO in the reaction was 0.1%. Elastase substrate MeOSuc-AAPV-AMC (Bachem, Catalog #I-1270, Torrance, CA) of 100 μM final concentration was then added into the reaction system just before enzyme kinetics were read on PheraSTAR plate reader at excitation of 380 nm and emission of 460 nm with a 3-minutes interval for 30 minutes in total. Slope of fluorescence intensity vs. time representing the Vmax of enzyme activity was calculated with MARS software. % relative inhibition was calculated as: […]
as §1
(§3) Human sputum was purchased from Discovery Life Sciences (Los Osos, CA). Human sputum was diluted 1:10 in volume with assay buffer (100 mM HEPES, 500 mM NaCl, 0.02% Tween 20) followed by vigorous vortexing. The 1:10 diluted human sputum was further diluted into 1:30, 1:90, 1:270, 1:810, and 1:2430. The elastase concentration was determined by elastase inhibition assay as described above. Specifically, a series of standards of human neutrophil elastase (starting at 2 μg/mL and further diluted 1:2 in volume) were prepared in the assay buffer. The samples and standards were plated in a 384-well black solid bottom plate; the substrate MeOSuc-AAPV-AMC of 100 μM final concentration was then added into the reaction system just before enzyme kinetics were read on PheraSTAR plate reader as mentioned above. The slope of enzymatic kinetic reading was calculated by MARS software. The elastase levels of the human sputum were calculated based on the standard curve.

[5] = biological target: elastase in COPD patient sputum (Homo sapiens (Human), UniProt P08246); assay: Elastase inhibition assay in COPD patient sputum; type: biochemical
Protocol: as §2, §1, §3

Plasma Stability Assay = type: in vitro ADME, mouse; conditions: CD-1 Mouse Plasma
Protocol: Propantheline was used as the reference compound in this assay; all stock solutions were stored at −40° C. before use. • 2) Test system: CD-1 Mouse Plasma from a minimum of 20 male individuals were obtained from BioreclamationlVT (Catalog #: […]2-M; Batch #: MSE244515). EDTA-K2 was used as the anticoagulant. Procedure:
The frozen plasma was thawed in a water bath at 37° C. prior to the experiments. The plasma was centrifuged at 4000 rpm for 5 min and the clots were removed if necessary.
The pH was adjusted to 7.4±0.1 as necessary. An intermediate solution (1 mM) was prepared and a 100 μM dosing solution was prepared by diluting 10 μL of the intermediate solution with 90 μL 45% MeOH/H2O. Duplicate of test samples were made by mixing 98 μL of blank plasma with 2 μL of dosing solution (100 μM) to achieve the final concentration of 2 μM. Samples were incubated at 37° C. At each time point (0, 10, 30, 60, and 120 min), 400 μL of stop solution (consisting of 200 ng/mL tolbutamide and 20 ng/mL buspirone in 50% MeOH/CH3CN) was added to precipitate protein under thorough mixing. The sample plates were then centrifuged at 4,000 rpm for 10 min. An aliquot of supernatant (100 μL) was transferred from each well and mixed with 200 of μL ultrapure water. The samples were shaken at 800 rpm for about 10 min before LC-MS/MS analysis.
Data analysis: The % remaining of test compound after incubation in plasma was calculated using following equation: Remaining=100×(PAR at Tn/PAR at T0) where PAR is the peak area ratio of analyte versus internal standard (IS) and The appointed incubation time points are T0 (0 min), Tn (n=0, 10, 30, 60, 120 min).
LC-MS/MS condition: Each compound was analyzed by LC/MS using an ACE 5-phenyl 50×2.1 mm column (Part No. ACE-125-0502) with 0.1% formic acid in water and 0.1% formic acid in acetonitrile as the mobile phases. Tobultamide was used as the internal standard. Data collected were processed by Analyst 1.6.2 software and MultiQuant 3.0.2 software.

[6] = Caco-2, pH 7.4, Mean Recovery % A to B
[7] = mouse, liver microsomes, pH 7.4

Sequence of human neutrophil elastase (P08246 30-247): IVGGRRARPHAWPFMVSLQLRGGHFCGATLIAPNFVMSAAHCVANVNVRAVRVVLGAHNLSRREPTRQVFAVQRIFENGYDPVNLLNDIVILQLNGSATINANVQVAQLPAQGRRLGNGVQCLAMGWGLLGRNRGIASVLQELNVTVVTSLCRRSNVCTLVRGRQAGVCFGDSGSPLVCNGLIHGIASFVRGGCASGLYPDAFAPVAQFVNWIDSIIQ
Sequence of elastase in COPD patient sputum (P08246 30-267): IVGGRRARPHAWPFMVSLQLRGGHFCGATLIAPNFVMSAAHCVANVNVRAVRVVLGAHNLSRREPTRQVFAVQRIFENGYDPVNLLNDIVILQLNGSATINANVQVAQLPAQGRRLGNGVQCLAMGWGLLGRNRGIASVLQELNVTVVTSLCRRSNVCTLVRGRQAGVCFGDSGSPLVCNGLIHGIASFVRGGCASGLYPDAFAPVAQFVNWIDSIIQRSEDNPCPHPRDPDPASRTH
Sequence of elastase in CF patient sputum (P08246 30-267): as above

Compound `C[C@H]1O[C@@H](O[C@H]2[C@@H](O)C[C@H](O[C@H]3[C@@H](O)C[C@H](O[C@H]4CC[C@@]5(C)[C@H](CC[C@@H]6[C@@H]5C[C@@H](O)[C@]5(C)[C@@H](C7=CC(=O)OC7)CC[C@]65O)C4)O[C@@H]3C)O[C@@H]2C)C[C@H](O)[C@@H]1O` [Digoxin] has a Papp A→B at 120 min, 2 μM ([1]; Caco-2, pH 7.4) of under 0.02 ×10⁻⁶ cm/s, a Papp B→A at 120 min, 2 μM ([1]; Caco-2, pH 7.4) of 8.5 ×10⁻⁶ cm/s and an efflux ratio at 2 h, 2 μM ([1]; Caco-2, pH 7.4) of over 364. It also gave a recovery at 2 h, 2 μM [1, 6] of under 91.2% and a recovery at 2 h, 2 μM ([1]; Caco-2, pH 7.4, Mean Recovery % B to A) of 100%.

With `O=C(O)Cc1ccccc1Nc1c(Cl)cccc1Cl` [Diclofenac] the “Remaining (*NCF = 60min)” value [2] was 88.0%, the “Remaining (T = 60 min)” value [2] was 43.0% and the Extraction ratio ([2]; MLM 0.5, Qh 90.0 mL/min/Kg) was 0.5. It also gave a CLint scaled at 1 μM [2, 7] of 108 mL/min/kg, a microsomal CLint at 1 μM [2, 7] of 27.2 µL/min/mg and a half-life at 1 μM ([2]; mouse, microsomes, pH 7.4) of 51 min.

For `COC(=O)C1=C(C)N(c2cccc(C(F)(F)F)c2)c2nn(CC(=O)N(C)CCC[N+](C)(C)C)c(=O)n2C1c1ccc(C#N)cc1` (stereo not drawn) [Compound 57], the LipE [3] was 9.46, the IC50 ([3]; read-out: IC50) was 0.99 ± 0.13 nM and the IC50 [4] was 2.04 ± 0.08 nM. The LipE [4] was 9.16, the IC50 [5] was 0.97 ± 0.14 nM and the LipE [5] was 9.45.

With `CC(Cc1ccc(O)cc1)NCC(O)c1cc(O)cc(O)c1` (stereo not drawn) [Fenoterol] the Papp A→B at 120 min, 2 μM ([1]; Caco-2, pH 7.4) was 0.24 ×10⁻⁶ cm/s and the recovery at 2 h, 2 μM ([1]; Caco-2, pH 7.4) was 93.4%.

With `CC(C)[N+](C)(CCOC(=O)C1c2ccccc2Oc2ccccc21)C(C)C` [Propantheline] the “% Remaining (mean)” value (Plasma Stability Assay; 0 min, 2 μM, 37° C.) was 100.0%, the “% Remaining (mean)” value (Plasma Stability Assay; 10 min) was 76.8% and the “% Remaining (mean)” value (Plasma Stability Assay; 30 min) was 39.1%. The “% Remaining (mean)” value (Plasma Stability Assay; 60 min) was 21.7% and the “% Remaining (mean)” value (Plasma Stability Assay; 120 min) was 7.7%.

In the case of `COC(=O)N[C@H](C(=O)N1CCC[C@H]1C(=O)N[C@H](C(=O)O)C(C)C)C(C)C` [Compound 50b, (methoxycarbonyl)-L-valyl-L-prolyl-L-valine] (Moc-Val-Pro-Val-OH), the “inhibitory activity against HNE (in words)” value [3] is reported as “devoid of any inhibitory activities” and the IC50 [3] is reported as “Not Active”.

For `C[C@]12CC[C@H]3[C@@H](CCC4=CC(=O)CC[C@@]43C)[C@@H]1CC[C@@H]2O` [Testosterone], the “CLint(liver)” value ([2]; MLM 0.5) was 2365.5 mL/min/kg, the “Remaining (*NCF = 60min)” value [2] was 70.3% and the “Remaining (T = 60 min)” value [2] was 0.0%. For the same compound, the half-life at 1 μM ([2]; mouse, microsomes, pH 7.4) was 2.3 min and the microsomal CLint ([2]; mouse, microsomes, pH 7.4) was 597 µL/min/mg.

With `COC(=O)C1=C(C)N(c2cccc(C(F)(F)F)c2)c2n[nH]c(=O)n2C1c1ccc(C#N)cc1` (stereo not drawn) [Compound 56] the LipE [3] was 4.59, the IC50 ([3]; read-out: IC50) was 1.34 ± 0.13 nM and the IC50 [4] was 2.68 ± 0.04 nM. The LipE [4] was 4.29, the IC50 [5] was 1.12 ± 0.04 nM and the LipE [5] was 4.67.

In the case of `CC1=C(C#N)[C@@H](c2ccc(C#N)cc2S(C)(=O)=O)N(C)C(=O)N1c1cccc(C(F)(F)F)c1` [Compound 54, BAY 85-8501], the LipE [3] is reported as 6.76, the LipE [4] is reported as 5.87 and the “inhibitory activity in patient sputum versus purified HNE (in words)” value ([4]; sputum samples of CF and COPD patients) is reported as “potencies diminished drastically”. It also gave a LipE [5] of 6.85.

Work on `Cc1c(-c2ccnn2C)cc(C(=O)NCc2ccc(S(C)(=O)=O)cn2)c(=O)n1-c1cccc(C(F)(F)F)c1` [Compound 53] yielded a LipE [3] of 7.32, an IC50 ([3]; read-out: IC50) of 2.62 ± 0.39 nM and an IC50 [4] of 4.08 ± 0.39 nM. For the same compound, the LipE [4] was 7.11, the IC50 [5] was 2.98 ± 0.82 nM and the LipE [5] was 7.22.

With POL6014 [Compound 55] the IC50 ([3]; read-out: IC50) was 0.093 ± 0.008 nM, the IC50 [4] was 0.48 ± 0.03 nM and the LipE [4] was 17.8. It also gave an IC50 [5] of 0.051 ± 0.004 nM and a LipE [5] of 18.8.

For `CC(C)NCC(O)COc1cccc2ccccc12` (stereo not drawn) [Propranolol], the Papp A→B at 120 min, 2 μM ([1]; Caco-2, pH 7.4) was 19.8 ×10⁻⁶ cm/s and the recovery at 2 h, 2 μM [1, 6] was 69.2%.
